The source of these data is patent US8481519B2 (LTS Lohmann Therapie-Systeme AG, priority 2005, dated 2013).

For assay [1], the target named is T1, human androgen receptor (hAR) (Homo sapiens, UniProt P10275).
T1 construct: expressed in transfected cells; host or cells: CV1 monkey kidney cells, which lack endogenous androgen receptor
T1 sequence (P10275 1-920): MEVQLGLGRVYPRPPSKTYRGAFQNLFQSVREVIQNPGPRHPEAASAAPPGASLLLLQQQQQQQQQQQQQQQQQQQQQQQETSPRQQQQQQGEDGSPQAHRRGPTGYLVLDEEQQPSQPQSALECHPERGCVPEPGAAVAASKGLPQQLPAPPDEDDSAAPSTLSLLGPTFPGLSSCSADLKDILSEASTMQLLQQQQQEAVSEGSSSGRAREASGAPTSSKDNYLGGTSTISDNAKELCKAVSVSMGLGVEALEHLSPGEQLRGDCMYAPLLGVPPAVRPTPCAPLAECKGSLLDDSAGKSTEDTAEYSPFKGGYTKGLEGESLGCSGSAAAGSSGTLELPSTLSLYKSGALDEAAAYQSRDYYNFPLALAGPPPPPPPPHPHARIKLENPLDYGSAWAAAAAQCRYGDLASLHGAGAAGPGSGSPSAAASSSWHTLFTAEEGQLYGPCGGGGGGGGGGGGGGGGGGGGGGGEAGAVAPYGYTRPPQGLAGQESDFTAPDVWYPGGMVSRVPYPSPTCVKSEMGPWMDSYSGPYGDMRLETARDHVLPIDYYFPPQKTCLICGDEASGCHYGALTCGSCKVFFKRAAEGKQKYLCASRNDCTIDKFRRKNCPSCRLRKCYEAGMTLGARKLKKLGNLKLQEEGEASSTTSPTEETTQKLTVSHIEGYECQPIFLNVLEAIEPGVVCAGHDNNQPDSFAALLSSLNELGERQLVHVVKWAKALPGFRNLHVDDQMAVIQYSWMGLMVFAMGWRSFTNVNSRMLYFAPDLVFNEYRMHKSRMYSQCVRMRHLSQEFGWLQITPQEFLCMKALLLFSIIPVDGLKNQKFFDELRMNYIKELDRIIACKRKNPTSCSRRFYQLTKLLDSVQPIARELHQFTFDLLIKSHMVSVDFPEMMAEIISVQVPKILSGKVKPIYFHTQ
Put plainly: androgen receptor-dependent MMTV-luc reporter gene assay (luciferase assay) in transfected CV1 cells. The following applies: for antiandrogenic effect of atraric acid derivatives and structurally similar compounds: FIGS. 6 and 7, concentration not given (FIG. 6: 10^−6 M); for inactivation of androgen receptor-mediated transactivation: 1 μM concentration; for inhibition of androgen receptor-mediated transactivation: 10 μM concentration, FIG. 7. The format is cell-based. The text has this: The potentially antiandrogenic efficacy of the extracts obtained was examined with the androgen receptor-dependent MMTV-luc reporter gene assay, in the following designated as luciferase assay.
In that assay, the enzyme luciferase serves as a reporter gene. Luciferase is an oxidoreductase from the North American firefly Photinus pyralis, which […] the substrate luciferin in the presence of aerial oxygen, ATP and Mg^2+ ions, to oxyluciferin. The energy emitted in the process is emitted as light.
The reporter gene luciferase is located on the plasmid pMMTV-luc (MMTV=Mouse mammary tumour virus), on which is also located the androgen-responsive element (ARE). The plasmid pMMTV-luc is transfected, together with the androgen receptor expression vector, into fibroblasts of the monkey kidney. If an androgen is added thereto, this androgen will bind, in a complex with the androgen receptor, to the androgen-responsive element. This process then initiates the transcription of the following gene, namely that of the luciferase reporter gene. The amount of the expressed luciferase is directly proportional to the amount of light released when adding luciferin, and the amount of light can be quantified by measuring the emission at λ=562 nm. If apart from the androgen there is also an antiandrogenic substance or an antiandrogenic extract, the transactivation of the luciferase reporter gene by the androgen-responsive element is inhibited and later, when the substrate is added, a correspondingly smaller amount of light energy is released.
The extracts were then examined at two concentrations (300 μg/ml and 600 μg/ml) for their antiandrogenic bioactivity using the luciferase assay.
Monkey kidney cells, line CV1, lacking endogenous androgen receptor, were cultured in Dulbecco's modified Eagle's medium (DMEM), supplemented with 10% (v/v) fetal calf serum, penicillin (100 IU/ml) and streptomycin (100 IU/ml), at 37° C. and 5% CO2.
For the transfection experiments, the cells were seeded onto 6-well cell culture plates (Nunc, Roskilde, Denmark) with a density of 1.2×10^5 cells per well, and grown in DMEM medium supplemented with 10% (v/v) dextran-coated activated charcoal stripped serum. Six hours after seeding, the cells were transfected by using the Ca3(PO4)2 method. The human androgen receptor (hAR) expression vector (0.2 μg) was cotransfected with 1 μg of the reporter plasmid MMTV-luc and 0.2 μg of the cytomegalovirus (CMV)-driven β-galactosidase expression virus, as internal control for transfection efficiency. After 14 hours, the medium was replaced either without (white bars in FIGS. 1 to 3) or with the addition of methyltrienolone (R1881, 3×10^−10 M final concentration; black bars in FIGS. 1 to 3) together with the indicated extracts (FIG. 1), fractions of the methylene chloride extract (FIG. 2) or individual isolated compounds (FIG. 3). After an additional 48 hours, cells were harvested and assayed for luciferase and β-galactosidase activity.
Luciferase activity was determined by injecting luciferin and measuring light emission at 562 nm and expressed as relative light units (RLU) by using the values […] β-galactosidase activity for normalisation of the luciferase activity. All transfection assays shown were performed in duplicate and were repeated at least twice.
For determining antiandrogenic activity in the various extracts from the bark of P. africana, the extracts were used at a concentration of 300 μg/ml.
For determining the antiandrogenic activity in the fractions of the selective methylene chloride extracts, 2 μl of the respective fraction was used, corresponding to a final concentration of 30 μg/ml. Fractions 6 to F10 were additionally tested with 4 μl, corresponding to 60 μg/ml final concentration.

Assay [2] deals with human prostate carcinoma cells (cell line LNCaP). Kind of assay: LNCaP cell growth assay. The following applies: FIG. 4; for growth of LNCaP cells: atraric acid 10 μM, OH—F 0.1 μM. Type of assay: cell-based. The procedure: The growth of prostate cells and prostate cancer cells is originally dependent on androgens.
Human prostate carcinoma cells (cell line LNCaP) were cultured in RPMI-1640 medium that was supplemented with 10% (v/v) fetal calf serum, penicillin (100 IU/ml) and streptomycin (100 IU/ml), 2 mM glutamine and 1 mM sodium pyruvate.
For the cell growth assays, LNCaP cells were seeded onto a 24-well cell culture plate at a density of 5×10^3 cells per well and cultured in RPMI-1640 medium containing 5% fetal calf serum. […] Every second day the medium was replaced with fresh medium together with freshly added compounds. The cells were trypsinized and counted using a counting cell chamber on the indicated days.

Assay [3] has as its target T2, human ERβ (Homo sapiens, UniProt Q92731).
T2 construct: expressed in transfected cells; host or cells: CV1 cells
Kind of assay: p2ERE-TATA-luc reporter gene assay in CV1 cells transfected with ERβ. The following applies: FIG. 8. The format is cell-based. The procedure:
(§1) After seven days, the cells were seeded in 6-well plates (Nunc, Roskilde, Denmark) at a density of 1.5×10^5 cells per well. After 24 hours, the cells were transfected according to the calcium phosphate method with 2 μg of the reporter gene-encoding expression plasmid, 0.2 μg of the ERα-encoding or ERβ-encoding expression plasmid and, for reasons of normalisation, 0.2 μg of the cytomegalovirus-derived β-galactosidase. […] After 48 hours, the cells were harvested and assayed for luciferase and β-galactosidase activity. All transfection assays were performed in duplicate and were repeated at least twice.

For assay [4], the target named is T3, human ERα (Homo sapiens, UniProt P03372).
T3 construct: expressed in transfected cells; host or cells: CV1 cells
Put plainly: p2ERE-TATA-luc reporter gene assay in CV1 cells transfected with ERα. The format is cell-based. The settings on record: FIG. 9. The procedure: as §1

The test system of assay [5] is pathologically altered androgen receptor. The settings on record: background, prior work; cited from earlier work.
Setting [6] is: no estradiol present, 10 μM or 100 μM.

T2 sequence (Q92731 whole entry): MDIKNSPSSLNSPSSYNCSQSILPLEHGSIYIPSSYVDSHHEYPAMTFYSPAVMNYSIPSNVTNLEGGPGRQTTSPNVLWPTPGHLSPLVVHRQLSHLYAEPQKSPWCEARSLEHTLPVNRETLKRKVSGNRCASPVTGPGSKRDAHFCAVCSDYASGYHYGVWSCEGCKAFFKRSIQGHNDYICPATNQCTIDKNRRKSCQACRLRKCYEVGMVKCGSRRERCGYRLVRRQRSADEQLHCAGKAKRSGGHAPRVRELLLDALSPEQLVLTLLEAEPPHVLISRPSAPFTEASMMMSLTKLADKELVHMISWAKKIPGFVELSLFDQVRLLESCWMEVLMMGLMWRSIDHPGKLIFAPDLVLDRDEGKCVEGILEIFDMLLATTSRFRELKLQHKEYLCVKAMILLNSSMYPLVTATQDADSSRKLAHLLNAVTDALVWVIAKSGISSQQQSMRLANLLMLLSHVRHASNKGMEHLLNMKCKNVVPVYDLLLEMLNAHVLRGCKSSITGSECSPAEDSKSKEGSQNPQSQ
T3 sequence (P03372 whole entry): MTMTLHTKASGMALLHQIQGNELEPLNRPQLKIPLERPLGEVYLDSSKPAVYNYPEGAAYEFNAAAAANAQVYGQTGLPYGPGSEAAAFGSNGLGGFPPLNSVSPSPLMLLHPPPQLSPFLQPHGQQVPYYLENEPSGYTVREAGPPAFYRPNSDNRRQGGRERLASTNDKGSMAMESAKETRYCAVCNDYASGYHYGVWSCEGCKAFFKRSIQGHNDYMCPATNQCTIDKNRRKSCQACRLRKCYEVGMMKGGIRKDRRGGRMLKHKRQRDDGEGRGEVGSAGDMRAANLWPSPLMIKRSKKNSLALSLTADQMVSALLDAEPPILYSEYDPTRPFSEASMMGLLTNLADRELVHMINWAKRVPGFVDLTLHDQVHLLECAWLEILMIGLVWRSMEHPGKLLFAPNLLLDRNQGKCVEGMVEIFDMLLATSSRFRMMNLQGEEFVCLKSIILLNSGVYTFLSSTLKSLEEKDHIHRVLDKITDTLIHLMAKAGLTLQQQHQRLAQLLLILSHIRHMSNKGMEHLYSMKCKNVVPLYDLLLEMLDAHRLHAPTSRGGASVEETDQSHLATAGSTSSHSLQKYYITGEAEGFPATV

For `COC(=O)c1c(O)c(C)cc(C)c1O` [R5, methyl-2,6-dihydroxy-3,5-dimethylbenzoate], in assay [1], the “antiandrogenic effect of atraric acid derivatives and structurally similar compounds” value (“antiandrogenic effect” for short) was “loss of antiandrogenic activity”. Regarding `Cc1cc(O)c(C)c(O)c1C(=O)OCCNS(=O)(=O)c1ccccc1` [A4, 2-[(phenylsulfonyl)amino]ethyl-2,4-dihydroxy-3,6-dimethylbenzoate], the “antiandrogenic effect” value in assay [1] is recorded as “no antiandrogenic effect”. On to `Cc1cc(C(=O)OC(C)C)c(O)c(C)c1O` [A6, isopropyl-2,4-dihydroxy-3,5-dimethylbenzoate], for which, in assay [1], the “inactivation of androgen receptor-mediated transactivation” value is “still able to inactivate” and the “inhibition of androgen receptor-mediated transactivation” value is on record as “nearly completely inhibiting”. As for `CC(C)(O)C(=O)Nc1ccc([N+](=O)[O-])c(C(F)(F)F)c1` [OH—F, hydroxyflutamide, reference compound], the “growth of LNCaP cells” value in assay [2] is reported as “did not lead to any reduction in growth”. In the case of `COC(=O)c1c(C)c(Br)c(O)c(Br)c1O` [R1, methyl-3,5-dibromo-2,4-dihydroxy-6-methylbenzoate], in assay [1], the “antiandrogenic effect” value is recorded as “loss of anti androgenic activity”. Turning to `COC(=O)c1c(C)cc(O)c(C)c1O` [atraric acid, methyl-2,4-dihydroxy-3,6-dimethylbenzoate], the “estrogen-responsive expression of the reporter gene (ERβ agonism)” value in assay [3] (setting [6]) is reported as “activated in a dose-dependent manner”. Further, in assay [3] (with estradiol), the “hormone-mediated transactivation of ERβ” value is given as “not affected”. Moreover, the “estrogen-responsive expression of the reporter gene (ERα agonism)” value in assay [4] (setting [6]) is given as “activated in a dose-dependent manner”. Besides, the “hormone-mediated transactivation of ERα” value in assay [4] (with estradiol) is “not affected”. The “growth of LNCaP cells versus untreated cells” value in assay [2] (10 μM, 8th day of treatment) is on record as “clearly slower”. Further, the “growth of LNCaP cells” value in assay [2] was “reduced growth”.

`CC(=O)[C@@]1(O)CC[C@H]2[C@@H]3C=C(Cl)C4=CC(=O)[C@@H]5C[C@@H]5[C@]4(C)[C@H]3CC[C@@]21C` [cyproterone]: the “inclusions in cells expressing a pathologically altered androgen receptor” value in assay [5] is given as “only a small number of inclusions”. For the compound `C[C@]12CC[C@H]3[C@@H](CCC4=CC(=O)CC[C@@]43C)[C@@H]1CC[C@@H]2O` [testosterone], the “inclusions in cells expressing a pathologically altered androgen receptor” value in assay [5] is “characteristic inclusions in the cytoplasm”. As to `CC(C)=CCC/C(C)=C/COC(=O)c1cc(C)c(O)c(C)c1O` [A5, (2E)-3,7-dimethylocta-2,6-dien-1-yl-2,4-dihydroxy-3,5-dimethylbenzoate], the “antiandrogenic effect” value in assay [1] is reported as “did not lead to an antiandrogenically active molecule”. Same read-out and setting: the result for `Cc1cc(O)c(C)c(O)c1C(=O)O` [R6, 2,4-dihydroxy-3,6-dimethylbenzoic acid] reads “abrogates the antiandrogenic activity”. `COC(=O)c1ccc(O)c(C)c1O` [R4, methyl-2,4-dihydroxy-3-methylbenzoate]: in assay [1], the “inactivation of androgen receptor-mediated transactivation” value was “still able to inactivate” and the “inhibition of androgen receptor-mediated transactivation” value was “nearly completely inhibiting”.
